# Laboratory results as given in patent publication US5484770A, “Peptide compounds which inhibit the proliferation of epidermal or epithelial stem cells” (Hafslund Nycomed Bioreg AS, priority 1988, dated 1996).
# Where a SMILES comes first, the peptide text is derived from it. [ ]: non-standard residue; d: D form. pGlu = O=C1CC[C@@H](C(=O)O)N1
# Test system: haemopoiesis
# Test: inhibitory effect on haemopoiesis in vivo
# Settings: time at which the inhibitory effect occurs
# Description: By contrast it is also possible to prepare peptides having a metabolically labile blocking group so that slow release of the unblocked peptide can be achieved in vivo. Thus according to a further aspect of the invention we provide compounds of formula [drawing 10] wherein R^a, R^b, R^c, R^e, R^f and n are as defined for formula I, R^12 is a metabolically labile group, for example a 2-pyridylthio group, and all amino acids have the chiral form stated for formula (I).
structure (smiles),measurement,value
"NCCCC[C@H](NC(=O)[C@H](CS)NC(=O)[C@H](CC(=O)O)NC(=O)[C@H](CCC(=O)O)NC(=O)[C@@H]1CCC(=O)N1)C(=O)O [Example 1, L-PYROGLUTAMYL-L-GLUTAMYL-L-ASPARTYL-L-CYSTEINYL-L-LYSINE] ([pGlu]EDCK-OH)","inhibitory effect on haemopoiesis, occurring after",1 days
